Measurements from patent US5639735A, “Antitumor antibiotic compounds: hayumicins and analogs thereof” (Bristol-Myers Squibb Company, priority 1994, dated 1997).
Converted amounts (≈) assume the structure as drawn.

Tests used:
[1] = tested on: tumors; test: Antitumor activity (general statement); details: no test described
[2] = Solubility
[3] = tested on: Escherichia coli; test: Agar dilution MIC; format: cell-based; details: 18 h
Experimental: (§1) The following methodology was used to determine the minimum inhibitory concentration (hereinafter referred to as the "MIC") of the compounds of this invention. The test organisms were grown in 20 mL of Antibiotic Assay Broth (Difco) by inoculating the broth (in tubes) with a loopful of the organism from a BHI (Difco) agar slant. The inoculated tubes were incubated at 37° C. for 18 to 24 hours. These cultures were assumed to contain 10^9 colony forming units (CFU) per mL. The cultures were diluted 1:100 to give a final inoculum level of 10^7 CFU per mL; dilutions were made with Yeast Beef Broth (Difco). The antibiotics Hayumicin A and Hayumicin B of the present invention were dissolved in suitable diluents at a concentration of 1000 μg/mL. Two-fold dilutions were made in Yeast Beef Broth (Difco), resulting in a range from 1000 μg/mL to 0.5 μg/mL. A 1.5 mL portion of each dilution was placed into individual petri dishes to which 13.5 mL of K-10 agar was added. The composition of K-10 agar is:
(§2) The final drug concentration in agar of Hayumicin A or Hayumicin B ranged from […] to 0.05 μg/mL. Organism growth control plates containing agar only were prepared and inoculated before and after the test plates. The organisms were applied to the surface of each plate so that each contained a final inoculum of 10^5 CFU. The plates were incubated at 37° C. for 18 hours and the MICs determined. The MIC is the lowest concentration of compound inhibiting growth of the organism.

[4] = tested on: Klebsiella pneumoniae; test: Agar dilution MIC; format: cell-based; details: A No. 9664, 37° C., 18 hours
Experimental: as §1, §2

[5] = tested on: Bacillus subtilis; test: Agar dilution MIC; format: cell-based; details: A No. 9506A, 37° C., 18 hours
Experimental: as §1, §2

[6] = tested on: Pseudomanas aeruginosa; test: Agar dilution MIC; format: cell-based; details: A No. 21508, 37° C., 18 hours
Experimental: as §1, §2

[7] = tested on: Streptococcus pyogenes; test: Agar dilution MIC; format: cell-based; details: A No. 9604, 37° C., 18 hours
Experimental: as §1, §2

[8] = tested on: Staphylococcus aureus; test: Agar dilution MIC; format: cell-based; details: 18 h
Experimental: as §1, §2

[9] = tested on: Streptococcus pneumoniae; test: Agar dilution MIC; format: cell-based; details: A No. 9585, 37° C., 18 hours
Experimental: as §1, §2

[10] = tested on: Micrococcus luteus; test: Agar dilution MIC; format: cell-based; details: A No. 9852, 37° C., 18 hours
Experimental: as §1, §2

[11] = tested on: Streptococcus agalactiae; test: Agar dilution MIC; format: cell-based; details: A No. 22567, 37° C., 18 hours
Experimental: as §1, §2

[12] = tested on: Proteus mirabilis; test: Agar dilution MIC; format: cell-based; details: A No. 9900, 37° C., 18 hours
Experimental: as §1, §2

[13] = tested on: Klebsiella oxytoca; test: Agar dilution MIC; format: cell-based; details: A No. 203454, 37° C., 18 hours
Experimental: as §1, §2

[14] = tested on: bacteria (especially gram positive bacteria); test: Antibiotic activity (general statement); format: cell-based; details: inhibiting the growth of bacteria

| SMILES | antitumor activity [1] | solubility in chloroform [2] | solubility in dimethylsulfoxide [2] | solubility in methanol [2] | solubility in n-hexane [2] | solubility in pyridine [2] | solubility in water [2] | MIC ([3]; A No. 20697, 37° C.) | MIC ([3]; A No. 22292, 37° C.) | MIC ([3]; A No. 28290, 37° C.) | MIC [4] | MIC [5] | MIC [6] | MIC [7] | MIC ([8]; A No. 9537, 37° C.) | MIC ([8]; A No. 9606, 37° C.) | MIC ([8]; A No. 24227, 37° C.) | MIC [9] | antibiotic activity [14] | solubility in ether [2] | also measured |
| --- | --- | --- | --- | --- | --- | --- | --- | --- | --- | --- | --- | --- | --- | --- | --- | --- | --- | --- | --- | --- | --- |
| CO[C@@H]1[C@@H](O)[C@@H](O[C@H]2[C@H](Oc3cccc4c(=O)c5c(O)c(=O)c6ccc(C)c7c(=O)oc(c-5c67)c34)O[C@H](C)[C@H](O)[C@@H]2O)O[C@H](C)[C@@H]1OC [Hayumicin A, 10-[[6-deoxy-2-O-(6-deoxy-3,4-di-O-methyl-α-D-galactopyranosyl)-β-D -galactopyranosyl]oxy]-5-hydroxy-1-methyl-4H -benzo[h]naphtho[8,1,2-cde][1]benzopyran-4,6,12-trione] | antitumor activity | slightly soluble | readily soluble | slightly soluble | insoluble | readily soluble | insoluble | > 128 µg/mL | 16 µg/mL (≈ 24 µM) | > 128 µg/mL | > 128 µg/mL | 32 µg/mL (≈ 48 µM) | > 128 µg/mL | 8 µg/mL (≈ 12 µM) | 64 µg/mL (≈ 96 µM) | 128 µg/mL (≈ 192 µM) | 128 µg/mL (≈ 192 µM) | 16 µg/mL (≈ 24 µM) | possess antibiotic activity | – | MIC [10]: 1 µg/mL (≈ 1.5 µM); MIC [11]: 8 µg/mL (≈ 12 µM); MIC [12]: > 128 µg/mL; MIC [13]: > 128 µg/mL |
| CO[C@@H]1[C@@H](O)[C@@H](O[C@H]2[C@H](Oc3cccc4c(=O)c5c(N)c(=O)c6ccc(C)c7c(=O)oc(c-5c67)c34)O[C@H](C)[C@H](O)[C@@H]2O)O[C@H](C)[C@@H]1OC [Hayumicin B, 5-amino-10-[[6-deoxy-2-O -(6-deoxy-3,4-di-O-methyl-α-D-galactopyranosyl)-β-D -galactopyranosyl]oxy]-1-methyl-4H -benzo[h]naphtho[8,1,2-cde][1]benzopyran-4,6,12-trione] | antitumor activity | slightly soluble | readily soluble | slightly soluble | insoluble | readily soluble | insoluble | > 128 µg/mL | 128 µg/mL (≈ 192 µM) | > 128 µg/mL | > 128 µg/mL | 4 µg/mL (≈ 6.01 µM) | > 128 µg/mL | 8 µg/mL (≈ 12 µM) | 64 µg/mL (≈ 96.1 µM) | 128 µg/mL (≈ 192 µM) | 128 µg/mL (≈ 192 µM) | 8 µg/mL (≈ 12 µM) | possess antibiotic activity | – | MIC [10]: 1 µg/mL (≈ 1.5 µM); MIC [11]: 8 µg/mL (≈ 12 µM); MIC [12]: > 128 µg/mL; MIC [13]: > 128 µg/mL |
| CO[C@@H]1[C@H](O)[C@@H](O)[C@@H](O[C@H]2[C@H](Oc3cccc4c(=O)c5c(N)c(=O)c6ccc(C)c7c(=O)oc(c-5c67)c34)O[C@H](C)[C@H](O)[C@@H]2O)O[C@@H]1C [Hayumicin C1, 5-amino-10-[[6-deoxy-2-O -(6-deoxy-4-O-methyl-α-D-galactopyranosyl)-β-D -galactopyranosyl]oxy]-1-methyl-4H -benzo[h]naphtho[8,1,2-cde][1]benzopyran-4,6,12-trione] | antitumor activity | slightly soluble | soluble | slightly soluble | practically insoluble | soluble | practically insoluble | – | – | – | – | – | – | – | – | – | – | – | possess antibiotic activity | practically insoluble | – |
| CO[C@H]1[C@@H](O)[C@@H](C)O[C@H](O[C@H]2[C@H](Oc3cccc4c(=O)c5c(N)c(=O)c6ccc(C)c7c(=O)oc(c-5c67)c34)O[C@H](C)[C@H](O)[C@@H]2O)[C@@H]1O [Hayumicin C2, B-amino-10-[[6-deoxy-2-O -(6-deoxy-3-O-methyl-α-D-galactopyranosyl)-β-D -galactopyranosyl]oxy]-1-methyl-4H -benzo[h]naphtho[8,1,2-cde][1]benzopyran-4,6,12-trione] | antitumor activity | slightly soluble | soluble | slightly soluble | practically insoluble | soluble | practically insoluble | – | – | – | – | – | – | – | – | – | – | – | possess antibiotic activity | practically insoluble | – |
| Cc1ccc2c(=O)c(N)c3c(=O)c4cccc(O[C@@H]5O[C@H](C)[C@H](O)[C@H](O)[C@H]5O[C@H]5O[C@H](C)[C@H](O)[C@H](O)[C@H]5O)c4c4oc(=O)c1c2c4-3 [Hayumicin D, 5-amino-10-[[6-deoxy-2-O -(6-deoxy-α-D-galactopyranosyl)-β-D -galactopyranosyl]oxy]-1-methyl-4H -benzo[h]naphtho[8,1,2-cde][1]benzopyran-4,6,12-trione] | antitumor activity | slightly soluble | soluble | slightly soluble | practically insoluble | soluble | practically insoluble | – | – | – | – | – | – | – | – | – | – | – | possess antibiotic activity | practically insoluble | – |
